Assay results as given in patent US5677342A, “Phenoxy acetic acids as aldose reductase inhibitors and antihyperglycemic agents” (American Home Products Corporation, priority 1996, dated 1997).
One block for each compound: values may come before it.

Columns and labels:
[1] = tested on: ob/ob mice; experiment: Determination of Blood Glucose Lowering Effect in ob/ob mice; format: in vivo, ob/ob mice (C57B1/6J); details: 100 mg/kg, p.o.
Protocol: 3. Determination of Blood Glucose Lowering Effect in ob/ob mice
Male or female ob/ob mice (C57B1/6J), ages 2 to 5 months (10 to 65 g), of a similar age are randomized according to plasma glucose into 4 groups of 10 mice. The mice are housed 5 per cage and are maintained on normal rodent chow with water ad libitum. The mice receive test compound daily. The test compound is suspended in 0.5 mL of 0.5% methyl cellulose and is administered by gavage (dissolved in drinking water) or admixed in the diet. The dose of compound given ranges from 2.5 to 200 mg/kg/day. Body weight of fed animals is measured at the beginning of each week and doses for the entire week are calculated using this weight and are expressed in terms of the active moiety of the compound. Control mice receive vehicle only.
On the morning of Days 4, 7 or 14 two drops of blood (approximately 50 μl) are collected into sodium fluoride containing tubes either from the tail vein or after decapitation. […] The plasma is isolated by centrifugation and the concentration of glucose is measured enzymatically on an Abbott V. P. Analyzer and the plasma concentration of insulin is determined by radioimmunoassay (Heding, 1972). For each mouse, the percentage change in plasma glucose on Day 4, 7 or 14 is calculated relative to the mean plasma glucose of the vehicle treated mice. […]

[2] = target: T1, bovine lens aldose reductase (Bos taurus, UniProt P16116); experiment: In vitro Inhibition of Aldose Reductase in the Bovine Lens; format: biochemical; details: DL-glyceraldehyde as substrate; for inhibition at 0.04 µM: dose 4 × 10^-8 M; for inhibition at 0.1 µM: dose 10^-7 M
T1 construct: preparation of the enzyme from bovine lens; from tissue; host or cells: bovine lens
Protocol: I. In vitro Inhibition of Aldose Reductase in the Bovine Lens
The aldose reductase inhibiting effects of the compounds of formula I were tested by employing an in vitro testing procedure similar to that described by S. Hayman and J. H. Kinoshita, J. Biol. Chem., 240, 877 (1965) wherein the abilitty of the invention compounds to inhibit bovine lens aldose reductase with DL-glyceraldehyde as the substrate was determined. In the present case the procedure of Hayman and Kinoshita was modified in that the final chromatography step was omitted in the preparation of the enzyme from bovine lens.

[3] = tested on: diabetic db/db mice; experiment: Determination of Blood Glucose Lowering in Diabetic db/db Mice; format: in vivo, male diabetic db/db (C57BL/KsJ) mice; details: p.o.; for plasma glucose lowering compared with ciglitazone / % Change glucose: 100 mg/kg; for plasma glucose lowering compared with ciglitazone: in words; for % Change glucose: plasma glucose Day 4 (mean of 2 and 4 hr samples) vs Day 1 baseline
Protocol: 2. Determination of Blood Glucose Lowering in Diabetic db/db Mice. On the morning of Day 1, 35 mice [male diabetic db/db (C57BL/KsJ) mice (Jackson Laboratories), 2-7 months of age and 50-70 g] were fasted for 4 hours, weighed and a baseline blood sample (15-30 μl) was collected from the tail-tip of each mouse without anesthesia, and placed directly into a fluoride-containing tube, mixed and maintained on ice. Food was then returned to the mice. The plasma was separated and levels of glucose in plasma determined by the Abbott VP Analyzer. Because of the variable plasma glucose levels of the db/db mice, 5 mice having the most extreme (i.e., highest or lowest) plasma glucose levels were excluded and the remaining 30 mice were randomly assigned into 7 groups of equivalent mean plasma glucose levels (N=6 for vehicle and N=4 for each drug group). On the afternoon of Days 1, 2 and 3, the vehicle, control or test drugs were administered (p.o.) to the ad libitum fed mice. On the morning of Day 4, the mice were weighed and food removed, but water was available ad libitum. Three hours later, a blood sample was collected and then the mice were given the fourth administration of drug or vehicle. Blood samples were collected again from the unanesthetized mice at 2 and 4 hours after drug administration. The plasma was separated and levels of glucose in plasma was determined by the Abbott VP Analyzer. For each mouse, the percent change of its plasma glucose level on Day 4 (mean of the 2 and 4 hr samples) from respective level before drug administration (Day 1 baseline sample) is determined as follows: [formula] Analysis of variance followed by Dunnett's multiple comparison (one-sided) will be used to estimate the 'degree of statistical significance of the difference between the vehicle control group and the individual drug-treated groups. A drug will be considered active, at the specific dosage administered, if the difference of the plasma glucose level has a p<0.05.

Compound: Cc1c(Cl)c(OCC(=O)O)c(Cc2ccc3c(Cl)cccc3c2)c(O)c1C=O [Example 1, [2-chloro-6-(5-chloro-naphthalen-2-ylmethyl)-4-formyl-5-hydroxy-3-methyl-phenoxy]-acetic acid]
- % Change glucose ([1]; plasma glucose on Day 4, 7 or 14 relative to vehicle mean): -24%
- % Change insulin ([1]; plasma insulin by radioimmunoassay, Day 4, 7 or 14): -38%
- inhibition at 0.04 µM [2]: 49%
- plasma glucose lowering compared with ciglitazone [3]: comparable with the results for ciglitazone
- % Change glucose [3]: -19%

Compound: O=Cc1ccc(OCC(=O)O)c(Cc2ccc3ccccc3c2)c1O [Example 2, (4-formyl-3-hydroxy-2-naphthalen-2-ylmethyl-phenoxy)-acetic acid]
- inhibition at 0.1 µM [2]: 34%
- plasma glucose lowering compared with ciglitazone [3]: comparable with the results for ciglitazone
- % Change glucose [3]: -23%

Compound: O=Cc1ccc(OCC(=O)O)c(Cc2cccc3ccccc23)c1O [Example 3, (4-formyl-3-hydroxy-2-naphthalen-1-ylmethyl-phenoxy)-acetic acid]
- inhibition at 1 µM ([2]; dose 10^-6 M): 53%

Compound: O=Cc1ccc(OCC(=O)O)c(Cc2ccc3c(Cl)cccc3c2)c1O [Example 4, [2-(5-chloro-naphthalen-2-ylmethyl)-4-formyl-3-hydroxy-phenoxy]-acetic acid]
- inhibition at 0.04 µM [2]: 78%

Compound: CC1(COc2ccc(CC3SC(=O)NC3=O)cc2)CCCCC1 (stereo not drawn) [ciglitazone, reference compound]
- decrease in plasma glucose levels (average) ([3]; positive control, 100 mg/kg/day × 4 days, average): 26%
- decrease in plasma glucose levels ([3]; positive control, 100 mg/kg/day × 4 days, range): 18 to 34%

The remaining lines, values ahead:

- inhibition at 0.04 µM [2]: 84%
Compound: O=Cc1ccc(OCC(=O)O)c(Cc2ccc3c(Br)cccc3c2)c1O [Example 5, [2-(5-bromo-naphthalen-2-ylmethyl)-4-formyl-3-hydroxy-phenoxy]-acetic acid]

- inhibition at 0.04 µM [2]: 78%
Compound: O=Cc1ccc(OCC(=O)O)c(Cc2ccc3ccccc3c2Br)c1O [Example 6, [2-(1-bromo-naphthalen-2-ylmethyl)-4-formyl-3-hydroxy-phenoxy]-acetic acid]

- inhibition at 0.04 µM [2]: 83%
Compound: COc1c(C=O)ccc(OCC(=O)O)c1Cc1ccc2c(Cl)cccc2c1 [Example 7, [2-(5-chloro-naphthalen-2-ylmethyl)-4-formyl-3-methoxy-phenoxy]-acetic acid]

- inhibition at 0.04 µM [2]: 81%
Compound: COc1cc(OCC(=O)O)c(Cc2ccc3c(Cl)cccc3c2)c(O)c1C=O [Example 8, [2-(5-chloro-naphthalen-2-ylmethyl)-4-formyl-3-hydroxy-5-methoxy-phenoxy]-acetic acid]

- inhibition at 0.04 µM [2]: 89%
Compound: Cc1cc(OCC(=O)O)c(Cc2ccc3c(Cl)cccc3c2)c(O)c1C=O [Example 9, [2-(5-chloro-naphthalen-2-ylmethyl)-4-formyl-3-hydroxy-5-methyl-phenoxy]-acetic acid]

- inhibition at 0.1 µM [2]: 36%
Compound: O=Cc1cc(Cl)c(OCC(=O)O)c(Cc2ccc3c(Cl)cccc3c2)c1O [Example 10, [6-chloro-2-(5-chloro-naphthalen-2-ylmethyl)-4-formyl-3-hydroxy-phenoxy]-acetic acid]
